The source of these data is US20240058302A1, “METHOD OF INDUCTION OF TUMOR ASSOCIATED ANTIGENS WITH BRYOSTATIN” (BryoLogyx Inc., priority 2019, published 2024).

Assay [1] deals with CD5. As to the kind of experiment: Surface antigen expression on primary B cells from healthy donors, MM or CLL patients. The settings on record: 24 h exposure. Format: cell-based, human. An excerpt:
(§1) The ability of bryostatin-1 at multiple concentrations to modulate the surface expression of multiple antigens (CD5, CD19, CD20, CD22, CD37, CD200/OX2 and CD269/BCMA) at two time points on primary B cells from healthy donors (2 donors) or patients with multiple myeloma (2 patients, MM) or chronic lymphocytic leukemia (4 patients, CLL) was investigated.

In assay [2] the test system is CD22. The description is as above. Format: cell-based, human.
Description: as §1

The subject of assay [3] is CD19. Described as above. Format: cell-based, human. The settings on record: 72 h exposure.
Description: as §1

The subject of assay [4] is tumor cells derived from relapsed, low-expressing TAA patients. As to the kind of experiment: PDX model with CD22-directed CAR-T and bryostatin-1. The settings on record: bryostatin-1 administered on Day 45 after CD22-directed CAR-T cells on Day 42. The format is in vivo.
For assay [5], the system named is CD123. As to the kind of experiment: Flow cytometry of surface protein expression, AML193 cell line stimulated with bryostatin-1. The format is cell-based, human. The note with it: AML193 (AML) cells; bryostatin-1 0.001-1 nM, 24 or 72 hours; FIG. 1B. An excerpt:
(§2) Bryostatin-1 has been examined in numerous tumor cell lines representing various hematological tumor types. Surface protein target expression was examined by flow cytometry with human cell lines stimulated with different concentrations of bryostatin-1. Human cell lines representative of different hematological disease indications of leukemia/lymphoma (Toledo, REH, DB), multiple myeloma (NCI-H929, U266B1, RPMI8226), and acute myeloid leukemia (Kasumi-1, AML-193, THP1) were used as target cell lines. Each cell line was treated with bryostatin-1 at 0.001, 0.01, 0.1, or 1 nM for either 24 hours or 72 hours in duplicate prior to measuring the surface molecule expression, quantitatively, of the following protein antigens by flow cytometry: CD19, CD20, CD22, CD33, CD37, CD38, CD123, CD269 (BCMA), and isotype control. Bryostatin-1 caused an upregulation of some antigens and not others.

Assay [6] relates to CD22. Briefly: Flow cytometry of surface protein expression, REH cell line stimulated with bryostatin-1. The format is cell-based, human. The settings on record: REH (ALL) cells; bryostatin-1 0.001-1 nM, 24 or 72 hours; FIG. 1A.
Description: as §2

Assay [7] concerns CD269 (BCMA). Briefly: Flow cytometry of surface protein expression, NCI-H929 cell line stimulated with bryostatin-1. The format is cell-based, human. The settings on record: NCI-H929 (MM) cells; bryostatin-1 0.001-1 nM, 24 or 72 hours; FIG. 1C.
Description: as §2
For orientation: In flow cytometry, cells or beads pass a laser one at a time.

Where [8] appears, read: primary B cells of CLL patients.
The mark [9] stands for this setting: primary B cells of healthy donors.

Take `CCC/C=C/C=C/C(=O)O[C@H]1/C(=C/C(=O)OC)C[C@H]2C[C@H]([C@@H](C)O)OC(=O)C[C@H](O)C[C@@H]3C[C@H](OC(C)=O)C(C)(C)[C@](O)(C[C@@H]4C/C(=C/C(=O)OC)C[C@H](/C=C/C(C)(C)[C@]1(O)O2)O4)O3` [bryostatin-1, Bryostatin-1]: the CD5 expression result in assay [1] (setting [8]) is given as “not”; in assay [1] (primary B cells of MM patients) it was “increases”; in assay [1] (setting [9]), “not”. The CD22 expression result is “upregulated” in assay [2] (setting [8]), “not” in assay [2] (primary B cells of MM patients) and “upregulated” in assay [2] (setting [9]). The CD19 expression result is listed as “increases” in assay [3] (setting [8]), “not” in assay [3] (primary B cells of MM patients) and “increases” in assay [3] (setting [9]). For the same molecule, the Tumor response result in assay [4] is on record as “induced the tumors to respond”. For the same molecule, the “CD123 cell surface expression” value in assay [5] is “upregulated”. Further, in assay [6], the “CD22 cell surface expression” value is “upregulated”. In addition, the “CD269 (BCMA) cell surface expression” value in assay [7] is “upregulated”.
